Molecules are shown by their SMILES. In brackets after ≈: the same amount, converted by molar mass.

The test system of the assay is colorectal cancer tumor cells with the SMAD4^R361H mutation. Nature of the assay: Cell viability (CellTiterGlo) of patient-derived colorectal tumor cells in Matrigel, SMAD4 R361H. Format: cell-based. Particulars: Homo sapiens, 96 h, SMAD4^R361H loss-of-function mutation, 4-day treatment, FIG. 4, read-out: trametinib concentration at which tumor cell viability decreases below the IC50. Here is the method:
The mean inhibitory concentration, further referred to as IC50, is the concentration of an inhibitor at which half-maximal inhibition is observed. […] For the experiment, the biological tumor samples were dissociated by incubation with TrypLE Express solution (ThermoFisher Scientific, Germany) and 1.5×10^3 cells per well were seeded in four replicates in Matrigel and overlaid with culture medium. After 3-day incubation at 37° C. in 5% CO2, medium was removed and fresh medium containing trametinib was added. Trametinib was tested in four 1:5 dilution concentrations. Following concentrations were tested: 0.1 μg/ml, 0.02 μg/ml, 0.004 μg/ml and 0.0008 μg/ml. Cells treated with DMSO were used as control while Matrigel only was used for background readout. Staurosporine was used as internal positive control. After 4-day treatment, cell viability was determined by CellTiterGlo® assay. Cell plating, treatment and testing were handled by Biomek FXP Liquid Handler (Beckman Coulter).
(In general: ATP-based viability assays read luminescence as a measure of living cells.)

As for `CC(=O)Nc1cccc(-n2c(=O)n(C3CC3)c(=O)c3c(Nc4ccc(I)cc4F)n(C)c(=O)c(C)c32)c1` [trametinib, N-(3-{3-Cyclopropyl-5-[(2-fluor-4-iodphenyl)amino]-6,8-dimethyl-2,4,7-trioxo-3,4,6,7-tetrahydropyrido[4,3-d]pyrimidin-1(2H)-yl}phenyl)acetamid], the IC50 worked out at 6 ng/mL (≈ 9.75 nM).

Source of the values: US20240076742A1, “METHODS FOR IMPROVED CANCER TREATMENT” (CELLPHENOMICS GMBH, priority 2020, published 2024).
